Test [1] concerns P. knowlesi A1-H.1. Nature of the test: In vitro antiplasmodial activity, P. knowlesi A1-H.1 (SYBR Green I). The conditions noted are these: Plasmodium knowlesi, 27 h, read-out: Activity against P. knowlesi A1-H.1, IC50, 27 h, ± SD. Type of test: cell-based, Plasmodium knowlesi. On the procedure: (§1) P. falciparum (3D7 clone) and P. knowlesi (A1-H.1 clone) were maintained in culture in RPMI 1640 supplemented with 25 mM HEPES, 25 mM NaHCO3, 10 mM D-glucose, 2 mM L-glutamine, 50 mg/L hypoxanthine, 25 mg/L gentamicin sulfate, 5 g/L Albumax II, and 10% (v/v) equine serum (Thermo Fisher Scientific, 26-050-088). The P. falciparum (3D7) and P. knowlesi (A1-H.1) parasites were grown in human A^+ red blood cells (National Health Blood and Transplant, United Kingdom). The parasites were incubated in sealed flasks at 37°C under a culture gas mixture of 96% N2, 3% CO2, and 1% O2. ([van Schalkwyk et al., 2019]). The compounds were initially dissolved in DMSO prior to diluting in RPMI. All experiments were initiated using unsynchronized parasites with both the parasitemia and hematocrit set to 1%. Drug susceptibility assays were set up in 96-well, flat-bottom microplates in a final volume of 200 μL, as described previously ([van Schalkwyk et al., 2017]). The controls were included for the background fluorescence (0% viability; parasites exposed to a supralethal 10 μM chloroquine concentration) and 100% growth (parasites in drug-free wells). The plates were incubated for one complete life cycle (27 h for P. knowlesi or 48 h for P. falciparum in vitro) at 37°C in a modular incubation chamber (Billups-Rothenburg Inc.) under the culture gas. Upon termination of the assay, the plates were stored at −20°C overnight. The SYBR Green I fluorescent method was used to measure parasite survival ([Bennett et al., 2004]; [Smilkstein et al., 2004]). After the microplates were thawed, 100 μL from each well was transferred into a duplicate plate. To this was added 100 μL of SYBR green solution [SYBR Green I (Thermo Fisher Scientific, S7563), diluted 1:5000 in a lysis buffer made of 20 mM Tris, 5 mM EDTA, 0.008% (w/v) saponin, 0.08% (v/v) Triton X-100, pH 7.5]. The plates were stored in the dark for 1 h before fluorescence was read at a 490 nm excitation wavelength and a 520 nm emission wavelength on a Spectramax M3 microplate reader (Molecular Devices) ([van Schalkwyk et al., 2017]). The background fluorescence (wells with parasites at 0% viability) was subtracted from all drug assay wells, and the parasite proliferation was determined as a percentage of the fluorescence in the drug-free control wells.

Test [2] relates to P. falciparum gametocytes. Further details: method as in Forkuo et al., 2017. The note with it: ref Forkuo et al., 2017; read-out: IC50 against gametocytes, previous data; cited from earlier work.
Test [3] has as its system A2780/WT cells. Nature of the test: Chemosensitivity MTT assay, A2780 wild type. Type of test: cell-based, human. The note with it: Homo sapiens, A2780, 96 h, ± SE, read-out: Activity against A2780/WT cells, IC50. On the procedure: (§2) The chemosensitivity of compounds 3–6 was assessed in the wild-type immortalized human ovarian adenocarcinoma cell line A2780 and its daughter cell lines, which are resistant to the standard cancer chemotherapeutics doxorubicin (A2780/ADR) and cisplatin (A2780/CIS, all cell lines from ECACC, Salisbury, United Kingdom). A modified MTT assay was used ([Shnyder et al., 2008]). Cells (2 × 10^4/ml) were inoculated into each well of a 96-well plate and incubated for 24 h at 37°C in a humidified atmosphere containing 5% CO2. Compounds were then added at a range of concentrations to each well, and the plates were then incubated for a further 96 h. After 96 h, the culture medium was removed and 200 μL of 0.5 mg ml^–1 MTT solution (Sigma) in the complete medium was added to each well. Following a further 4 h incubation, the solution was removed from each well and 150 μL of DMSO was added to solubilize the formazan crystals resulting from MTT conversion. The absorbance values for the resulting solutions were read at 540 nm on an Azure 96-well microplate reader (Azure Biosynstems Inc.), and the cell survival was calculated as the absorbance of treated cells divided by the control.
On the technique in general: Tetrazolium assays rely on reduction of a dye to a coloured formazan, in cell work by metabolically active cells.

Test [4] has as its system A2780/cis cells. The test can be described thus: Chemosensitivity MTT assay, cisplatin-resistant A2780/CIS. It is filed as cell-based, human. The note with it: Homo sapiens, A2780cis, 96 h, ± SE, read-out: Activity against A2780/cis cells, IC50. The method, then:
as §2

The subject of test [5] is P. falciparum (NF54-Mal8p1.16-GFP-Luc) late-stage gametocytes. Nature of the test: microbe, parasite or virus in culture. It is filed as cell-based, Plasmodium falciparum. The note with it: Plasmodium falciparum, NF54, 48 h, read-out: Activity against late-stage gametocytes IC50. The method, then: Gametocytes were produced as per [Reader et al. (2015]; [2021)] from P. falciparum NF54-Mal8p1.16-GFP-Luc ([Adjalley et al., 2011]), and each batch was validated for viability and functionality before use. […] Drug assays were set up on day 10 (representing late gametocytes, >90% stage IV/V gametocytes) using a 2–3% gametocytemia, 1.5% hematocrit culture. The drug pressure was for 48 h under stationary, hypoxic conditions (90% N2, 5% O2, and 5% CO2) at 37°C. Luciferase activity was determined in 30 μL parasite lysates by adding 30 μL luciferin substrate (Promega Luciferase Assay System) at room temperature and detection of resultant bioluminescence at an integration constant of 10 s with the GloMax®-Multi + Detection System with Instinct® Software. Methylene blue (5 μM) and an internal control (MMV390048, 5 μM) were routinely included as controls.

Test [6] relates to A2780/ADR cells. The test can be described thus: Chemosensitivity MTT assay, doxorubicin-resistant A2780/ADR. Type of test: cell-based. The note with it: Homo sapiens, 96 h, ± SE, read-out: Activity against A2780/ADR cells, IC50. The method, then: as §2, with “A” for “The chemosensitivity of compounds 3–6 was assessed in the wild-type immortalized human ovarian adenocarcinoma cell line A2780 and its daughter cell lines, which are resistant to the standard cancer chemotherapeutics doxorubicin (A2780/ADR) and cisplatin (A2780/CIS, all cell lines from ECACC, Salisbury, United Kingdom). A”

Test [7] has as its system P. berghei. The note with it: P. berghei in mice, oral, 50 mg/kg/day; ref Wright et al., 1996; cited from earlier work.
Test [8] relates to T. brucei bloodstream forms (strain 427, derivative 221). The note with it: ref Oluwafemi et al. 2009; read-out: Activity against T. brucei IC50; cited from earlier work.
Test [9] deals with P. falciparum K1. Nature of the test: In vitro antiplasmodial activity, P. falciparum K1 (lactate dehydrogenase assay). It is filed as cell-based, Plasmodium falciparum. The conditions noted are these: Plasmodium falciparum; chloroquine-resistant strain K1, 48 h, mean ± SE; read-out: Activity against P. falciparum K1, IC50. On the procedure:
P. falciparum (K1 clone) was maintained in human erythrocytes prepared from the donated blood samples (blood groups unknown, Ethical Tissue, University of Bradford), suspended in the RPMI 1640 medium as previously described ([Wright et al., 2001]), except that serum was replaced with Albumax II, [5% (^w/v)]. […] Twofold serial dilutions were made in 96-well microtiter plates in duplicate, and infected erythrocytes were added to give a final volume of 100 µL with 2.5% hematocrit and 1% parasitemia. Chloroquine diphosphate was used as a positive control, and uninfected and infected erythrocytes without compounds were included in each test. The plates were placed into a modular incubator; gassed with 93% nitrogen, 3% oxygen, and 4% carbon dioxide; and incubated at 37°C for 48 h. The parasite growth was assessed by measuring lactate dehydrogenase activity as described by [Makler et al. (1993)]. The reagent used contained the following in each mL: acetylpyridine adenine dinucleotide (APAD), 0.74 mg; lithium lactate, 19.2 mg; diaphorase, 0.1 mg; Triton X-100, 2 μL; nitroblue tetrazolium, 1 mg; and phenazine ethosulphate, 0.5 mg. Fifty microliter of this reagent was added to each well and mixed; plates were incubated for 15 min at 37°C. The optical densities were read at 550 nm using an Azure 96-well microplate reader (Azure Biosystems Inc.), and % inhibition of growth was calculated by comparison with the control values. IC50 values were determined using linear regression analysis (Microsoft Excel). A minimum of three separate determinations was carried out for each compound.

In test [10] the test system is P. falciparum 3D7. The test can be described thus: In vitro antiplasmodial activity, P. falciparum 3D7 (SYBR Green I). It is filed as cell-based. The conditions noted are these: Plasmodium falciparum; chloroquine-sensitive strain 3D7, 48 h; read-out: Activity against P. falciparum 3D7, IC50. The method, then: as §1

Take `Cn1c2c3ccccc3nc-2cc2ccccc21` [Compound 1, cryptolepine]: the IC50 is 1040 ± 23 nM in [1]; 1970 nM in test [2]; 440 ± 200 nM in [3]; 670 ± 390 nM in test [4]; 2400 ± 300 nM in test [5]; 1270 ± 600 nM in [6]. Further, the IC50 in test [8] was 306 nM; in [9], 440 ± 220 nM; in test [10], 460 ± 40 nM. The “Suppression of parasitemia compared to untreated infected controls” value in test [7] was 80.5%.

These data come from PMC9119314 (Frontiers in Pharmacology, 2022).
